The source made the active and inactive calls. The calls are words filed in the database; no cut-off is given here.

Here are results for nine compounds from ChEMBL document CHEMBL5352408, “Discovery of dehydroandrographolide derivatives with C19 hindered ether as potent anti-ZIKV agents with inhibitory activities to MTase of ZIKV NS5” (Eur J Med Chem, 2022).

Data set [1] relates to Zika virus. The experiment in a line: Antiviral activity against ZIKV infected in African green monkey vero cells assessed as reduction in plaque formation incubated for 5 days by crystal violet based assay. The note with it: for EC50: 120 h. Type of data set: functional, organism-based.
The nature of data set [2]: Cytotoxicity against human Huh-7 cells incubated for 96 hrs. Type of data set: toxicity, cell-based.
Data set [3] deals with Zika virus. As to the kind of experiment: Antiviral activity against ZIKV infected in Vero cells assessed as inhibition of viral entry at 10 uM Co-treated with virus with Vero cells followed by transferred into fresh medium measured upto 48 hrs by qRT-PCR analysis based time of drug addition assay. It counts as functional, organism-based. The note with it: time 4.0 hrs. For orientation: Quantitative PCR measures a nucleic acid by following its amplification.

The target in the next data set is NS5 (Zika virus) (UniProt A0A143MHK7). As to the kind of experiment: Inhibition of ZIKV RdRP.
For data set [4], the system named is Zika virus. The experiment in a line: Antiviral activity against ZIKV infected in human Huh-7 cells incubated for 48 hrs by qRT-PCR analysis. Conditions: Huh-7, 48 h. It counts as functional, organism-based.
In data set [5] the test system is Zika virus. The experiment in a line: Antiviral activity against ZIKV infected in African green monkey vero cells incubated for 48 hrs by qRT-PCR analysis. Type of data set: functional, organism-based.
The next data set concerns the target Genome polyprotein (Zika virus, UniProt Q32ZE1). The experiment in a line: Inhibition of ZIKV NS5 MTase activity assessed as methyltransferase reaction using capped RNA substrate pre-incubated for 2.5 hrs followed by enzyme addition measured after 1 hrs by luminometer.
For data set [6], the system named is Zika virus. The experiment in a line: Antiviral activity against ZIKV infected in Vero cells assessed as late entry stage to late viral life cycle by measuring reduction in viral RNA reduction at 10 uM treated 1 to 2 hrs post infection incubated for 48 hrs by qRT-PCR analysis based time of drug addition assay. It counts as functional, organism-based.
In data set [7] the test system is Zika virus. As to the kind of experiment: Antiviral activity against ZIKV infected in Vero cells assessed as virucidal effect at 10 uM pre-treated with virus for 2 hrs followed by infected with Vero cells for 2 hrs after washout transferred to normal medium measured after 48 hrs of post infection by qRT-PCR analysis based time of drug addition assay. It counts as functional, organism-based. Conditions: time 4.0 hrs.

Data set [8] has as its system Zika virus. The experiment in a line: Antiviral activity against ZIKV infected in human A549 cells incubated for 48 hrs by qRT-PCR. It counts as functional, organism-based. Conditions: A549, 48 h.
Data set [9] deals with Zika virus. As to the kind of experiment: Antiviral activity against ZIKV infected in African green monkey Vero cells assessed as inhibition of ZIKV E protein at 0.4 uM incubated for 48 hrs by Western blot analysis relative to control. It counts as functional.
The test system of data set [10] is Zika virus. As to the kind of experiment: Antiviral activity against ZIKV infected in Vero cells assessed as viral infection at 10 uM pre-treated with Vero cells for 2 hrs followed by infected with virus cells for 2 hrs and measured upto 48 hrs in fresh medium by qRT-PCR analysis based time of drug addition assay. It counts as functional, organism-based. Conditions: time 4.0 hrs.

Data set [11] has as its system Zika virus. The experiment in a line: Antiviral activity against ZIKV infected in Vero cells assessed as late viral life cycle by measuring reduction in viral RNA reduction at 10 uM treated 12 hrs post infection incubated for 48 hrs by qRT-PCR analysis based time of drug addition assay. Type of data set: functional, organism-based.
For data set [12], the system named is Zika virus. The experiment in a line: Antiviral activity against ZIKV infected in Vero cells assessed as late viral life cycle by measuring reduction in viral RNA reduction at 10 uM treated 8 hrs post infection incubated for 48 hrs by qRT-PCR analysis based time of drug addition assay. It counts as functional, organism-based.
The target of data set [13] is Nonstructural protein 3 (Zika virus) (UniProt A0A024AXB9). As to the kind of experiment: Inhibition of ZIK virus NS2B-NS3 protease.
The subject of data set [14] is Zika virus. As to the kind of experiment: Antiviral activity against ZIKV infected in Vero cells assessed as late viral life cycle by measuring reduction in viral RNA reduction at 10 uM treated 3 to 6 hrs post infection incubated for 48 hrs by qRT-PCR analysis based time of drug addition assay. Type of data set: functional, organism-based.
Data set [15] has as its system Zika virus. As to the kind of experiment: Antiviral activity against ZIKV infected in Vero cells assessed as viral RNA reduction at 10 uM treated immediately post infection incubated for 48 hrs by qRT-PCR analysis based time of drug addition assay. It counts as functional, organism-based.
Data set [16] can be described thus: Cytotoxicity against human A549 cells incubated for 96 hrs. Type of data set: toxicity, cell-based.
For data set [17], the system named is Zika virus. As to the kind of experiment: Antiviral activity against ZIKV infected in Vero cells assessed as late RNA synthesis to late viral life cycle by measuring reduction in viral RNA reduction at 10 uM treated 10 hrs post infection incubated for 48 hrs by qRT-PCR analysis based time of drug addition assay relative to 8 hrs post-infection. Type of data set: functional, organism-based.

The test system of data set [18] is Zika virus. The experiment in a line: Antiviral activity against ZIKV infected in African green monkey Vero cells incubated for 48 hrs by Western blot analysis relative to control. It counts as functional, organism-based.
Data set [19] is described as follows: Cytotoxicity against african green monkey Vero cells incubated for 96 hrs. It counts as toxicity, cell-based. The note with it: chlorocebus sabaeus.
Data set [20] has as its system Zika virus. As to the kind of experiment: Antiviral activity against ZIKV infected in African green monkey Vero cells assessed as inhibition of ZIKV E protein at 10 uM incubated for 48 hrs by Western blot analysis relative to control. It counts as functional. (A western blot detects proteins with antibodies after separation by electrophoresis.)

Genome polyprotein, sequence (Q32ZE1 2517-3419 limits assumed): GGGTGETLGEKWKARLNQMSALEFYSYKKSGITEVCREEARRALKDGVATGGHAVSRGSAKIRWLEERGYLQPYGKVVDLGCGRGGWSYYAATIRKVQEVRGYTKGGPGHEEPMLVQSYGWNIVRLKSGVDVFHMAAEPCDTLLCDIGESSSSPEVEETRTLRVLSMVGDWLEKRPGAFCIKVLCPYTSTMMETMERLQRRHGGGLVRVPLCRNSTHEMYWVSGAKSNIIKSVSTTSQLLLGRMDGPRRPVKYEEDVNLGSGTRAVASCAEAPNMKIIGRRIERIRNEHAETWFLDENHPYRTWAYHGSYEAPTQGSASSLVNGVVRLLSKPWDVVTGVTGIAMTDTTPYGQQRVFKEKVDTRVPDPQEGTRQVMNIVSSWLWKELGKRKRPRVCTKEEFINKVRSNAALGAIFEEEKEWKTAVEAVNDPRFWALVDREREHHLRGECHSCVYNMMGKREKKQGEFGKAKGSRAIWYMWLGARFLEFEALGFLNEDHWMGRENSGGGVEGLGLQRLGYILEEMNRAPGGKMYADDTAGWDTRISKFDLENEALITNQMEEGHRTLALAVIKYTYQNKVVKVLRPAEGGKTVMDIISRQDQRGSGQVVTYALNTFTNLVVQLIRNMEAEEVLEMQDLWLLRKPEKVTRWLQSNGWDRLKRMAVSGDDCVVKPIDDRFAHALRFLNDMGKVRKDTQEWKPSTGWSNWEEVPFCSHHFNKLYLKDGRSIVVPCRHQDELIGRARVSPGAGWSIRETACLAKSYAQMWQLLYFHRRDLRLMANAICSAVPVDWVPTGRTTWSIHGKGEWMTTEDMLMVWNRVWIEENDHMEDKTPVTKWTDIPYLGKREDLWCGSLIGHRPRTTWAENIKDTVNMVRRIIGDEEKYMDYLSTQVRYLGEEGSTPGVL
NS5 (Zika virus), sequence (A0A143MHK7 as listed by the source): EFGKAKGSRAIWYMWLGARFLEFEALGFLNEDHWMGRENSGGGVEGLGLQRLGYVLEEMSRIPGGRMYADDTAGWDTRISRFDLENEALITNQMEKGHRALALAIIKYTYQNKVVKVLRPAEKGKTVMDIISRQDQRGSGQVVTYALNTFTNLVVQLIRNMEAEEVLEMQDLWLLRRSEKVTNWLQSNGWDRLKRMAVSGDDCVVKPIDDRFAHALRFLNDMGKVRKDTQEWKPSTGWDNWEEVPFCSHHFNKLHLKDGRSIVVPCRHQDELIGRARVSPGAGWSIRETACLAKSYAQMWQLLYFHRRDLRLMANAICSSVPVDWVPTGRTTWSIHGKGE
Nonstructural protein 3 (Zika virus), sequence (A0A024AXB9 as listed by the source): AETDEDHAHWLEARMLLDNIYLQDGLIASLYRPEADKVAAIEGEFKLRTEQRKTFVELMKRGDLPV

In the case of `C=C1CC[C@H]2[C@@](C)(CC/C(=N\O)[C@@]2(C)COC(c2ccccc2)(c2ccccc2)c2ccccc2)[C@@H]1/C=C/C1=CCOC1=O`, the EC50 in the data set with Zika virus [1] came to 0.76 µM; with Zika virus [4] it was 370 nM; with Zika virus [5] it was 480 nM; in the data set on Zika virus [8] it was 450 nM; in the data set with Zika virus [18], 380 nM. Also, the CC50 at 96 h in data set [2], in data set [16] and in [19] was over 200 µM throughout. For the same compound, the outcome with Zika virus [3], in the data set with Zika virus [7], with Zika virus [10], in the data set on Zika virus [11] and with Zika virus [17] was inactive. The inhibition entry (on NS5 (Zika virus); in data set [13]) was “inactive” throughout. Also, at Genome polyprotein, the IC50 was determined as 18.3 µM. The result in the data set with Zika virus [6], in the data set with Zika virus [12], in the data set on Zika virus [14] and in the data set with Zika virus [15] was Active. The inhibition at 0.4 µM in the data set on Zika virus [9] is 100%.
For `NC(=O)c1ncn([C@@H]2O[C@H](CO)[C@@H](O)[C@H]2O)n1` [RIBAVIRIN], the inhibition at 10 µM with Zika virus [20] came out at 50%.
On to `C=C1CC[C@H]2[C@@](C)(CC/C(=N\O)[C@@]2(C)CO[Si](c2ccccc2)(c2ccccc2)C(C)(C)C)[C@@H]1/C=C/C1=CCOC1=O`, for which the EC50 with Zika virus [1] came out at 0.71 µM. Further, the IC50 at Genome polyprotein was 14.1 µM. The compound also showed a CC50 at 96 h in data set [19] of over 200 µM.
Consider `C=C1CC[C@H]2[C@@](C)(CCC(=O)[C@@]2(C)COC(c2ccccc2)(c2ccccc2)c2ccccc2)[C@@H]1/C=C/C1=CCOC1=O`, for which, in the data set with Zika virus [1] (time 5.0 day), the result was inactive.
`Nc1ncnc2c1ncn2[C@@H]1O[C@H](C[C@@H](N)CC[C@H](N)C(=O)O)[C@@H](O)[C@H]1O` [SINEFUNGIN]: the IC50 at Genome polyprotein came to 19.2 µM.
Regarding `C=C1CC[C@@H]2[C@](C)(CO)[C@H](O)CC[C@@]2(C)[C@@H]1C/C=C1/C(=O)OC[C@H]1O` [ANDROGRAPHOLIDE], the EC50 in the data set with Zika virus [1] is 39.3 µM. Besides, the cytotoxic concentration (CC50) at 96 h in data set [19] was over 200 µM.
`C=C1CC[C@@H]2[C@](C)(COC(c3ccccc3)(c3ccccc3)c3ccccc3)[C@H](O)CC[C@@]2(C)[C@@H]1/C=C/C1=CCOC1=O`: the EC50 in the data set with Zika virus [1] turned out to be 6.17 µM. Further, the IC50 on Genome polyprotein was determined as 38.9 µM. Besides, the CC50 at 96 h in [19] was over 200 µM.
`C=C1CC[C@@H]2[C@](C)(CO)[C@H](O)CC[C@@]2(C)[C@@H]1/C=C/C1=CCOC1=O`: in the data set on Zika virus [1], the EC50 is 30.6 µM. In data set [19], this compound returned a CC50 at 96 h of over 200 µM.
For the compound `C=C1CC[C@H]2[C@@](C)(CC/C(=N\O)[C@@]2(C)COC(c2ccccc2)c2ccccc2)[C@@H]1/C=C/C1=CCOC1=O`, the EC50 in the data set on Zika virus [1] was 3.49 µM. Further, at Genome polyprotein, the IC50 was found to be 183 µM.

The EC50 is the midpoint of the concentration-response curve. As usually defined, the CC50 is the concentration at which the toxic effect on the cells reaches its halfway point. What is called inhibition is the percentage by which the read-out fell short of the control. As usually defined, the IC50 is the point on the concentration scale where inhibition reaches its midpoint.
